Holding throughout (type): cell-based, human
Experiment [1] deals with NanoLuciferase fused to various IKZF3-based degradation tags. Put plainly: Western blot of variant IKZF3-based degradation tags fused to NanoLuciferase in HEK293T cells. The following applies: tag fused to N-terminus of NanoLuciferase. The procedure: Additionally, the IKZF3-based degradation tags were modified using the following strategies:
(1) deleting N-terminal and/or C-terminal amino acid residues;
Protein degradation was measured using western blot as described in Example 2.
Background: Immunoblotting shows a protein as a band on a membrane.

The test system of experiment [2] is IKZF3 degron-tagged melanogenesis associated transcription factor (MITF). In words: Western blot of IKZF3-tagged MITF in HEK293T cells. The following applies: for degradation of tagged MITF mediated by IMiD: 10 μM compound for 24 hours, IKZF3 136-180 and 236-249- and lysine free-tagged MITF; for ability of the tag to mediate lenalidomide-dependent degradation of MITF: HEK293T, Western blot. The procedure: IKZF3-based degradation tags were evaluated for their ability to facilitate the degradation of melanogenesis associated transcription factor (MITF) or avian myelocytomatosis viral oncogene (MYC) homolog by Western blot. In addition to the IKZF3-based degradation tags, MITF and MYC were also fused to a FLAG tag to facilitate their detection using an anti-FLAG antibody.
DMSO was used as vehicle control.

For experiment [3], the system named is CAR19 fused to HilD tag and/or FurON. Put plainly: Flow cytometry of surface CAR expression on JNL cells, 10 μM lenalidomide and/or bazedoxifene 24 hours. The following applies: surface CAR on transduced JNL cells; for % reduction in CAR expression / Effect of lenalidomide: 10 μM lenalidomide, 24 hours; for CAR Expression: flow cytometry, FurON constructs only in presence of bazedoxifene. On the technique in general: In flow cytometry, cells or beads pass a laser one at a time.
Text: Next, the surface expression of CAR19 on stably transduced JNL cells was examined by flow cytometry. […] On Day 2, cells were harvested, stained using biotinylated-protein L (Genscript, M00097) followed by PE conjugated streptavidin (Jackson Lab, 016-110-084), and subjected to flow cytometry analysis using Fortessa instrument.

Results on 16 molecules are retold here after patent US20220251152A1, “COMPOSITIONS AND METHODS FOR SELECTIVE PROTEIN DEGRADATION” (Novartis AG, priority 2019, published 2022).

“Also recorded” adds a separate entry of the source.

Regarding “IKZF3 136-180 and 236-249 K245S: tag with lysine at position 245 mutated to serine, SEQ ID NO: 100 (HKRSHTGERPFQCNQCGASFTQKGNLLRHIKLHTGEKPFKCHLCNTASAEARHISAEMG; source: /note="Description of Unknown: IKZF3 sequence")”, the “ability of the tag to facilitate lenalidomide-dependent degradation of NanoLuciferase” value (from here on “ability of the tag … of NanoLuciferase”) in experiment [1] is “facilitated lenalidomide-induced degradation”; in experiment [1] (listed as SEQ ID NO: 100), “did not significantly impact the ability of the tag to mediate degradation”.
Regarding `O=C1CCC(N2C(=O)c3ccccc3C2=O)C(=O)N1` (stereo not shown) [thalidomide, 2-(2,6-dioxopiperidin-3-yl)isoindoline-1,3-dione, reference compound], the “degradation of tagged MITF mediated by IMiD” value in experiment [2] is listed as “much less effective”.
Take “IKZF3 136-180 MALEK: residues 236-249 replaced with helix MALEKMALEKMALE, SEQ ID NO: 85”: the “ability of the tag … of NanoLuciferase” value in experiment [1] is given as “retained the ability to facilitate lenalidomide-dependent degradation; also recorded: facilitated lenalidomide-induced degradation”.
The same measure, in the same setting: to “IKZF3 140-170 MALEK: tag comprising the amino acid sequence of SEQ ID NO: 87” belongs “did not mediate lenalidomide-induced degradation; also recorded: did not mediate lenalidomide induced degradation”; to “IKZF3 136-170 MALEK: IKZF3 136-170 with helix MALEKMALEKMALE, SEQ ID NO: 86”, “retained the ability to facilitate lenalidomide-dependent degradation; also recorded: able to mediate lenalidomide-dependent degradation; also recorded: facilitated lenalidomide-induced degradation”.
Consider “IKZF3 136-180 and 236-249 K245R: tag with lysine at position 245 mutated to arginine, SEQ ID NO: 84 (HKRSHTGERPFQCNQCGASFTQKGNLLRHIKLHTGEKPFKCHLCNTASAEARHIRAEMG; source: /note="Description of Unknown: IKZF3 sequence")”, for which the entries for the “ability of the tag … of NanoLuciferase” value in experiment [1] and in experiment [1] (listed as SEQ ID NO: 84) were “facilitated lenalidomide-induced degradation” and “did not significantly impact the ability of the tag to mediate degradation”, respectively.
`Nc1cccc2c1C(=O)N(C1CCC(=O)NC1=O)C2=O` (stereo not shown) [pomalidomide, 4-amino-2-(2,6-dioxopiperidin-3-yl)isoindoline-1,3-dione, reference compound]: the “degradation of tagged MITF mediated by IMiD” value is recorded as “effectively facilitated degradation of tagged MITF” in experiment [2] and “slightly greater extent than lenalidomide” in experiment [2] (listed as Pomalidomide).
“IKZF3 136-180 and 236-249: IKZF3-based degradation tag with amino acid residues 136-180 and 236-249 of human IKZF3, SEQ ID NO: 3 (HKRSHTGERPFQCNQCGASFTQKGNLLRHIKLHTGEKPFKCHLCNTASAEARHIKAEMG; source: /note="Description of Unknown: IKZF3 sequence")”: the “ability of the tag to mediate lenalidomide-dependent degradation of MITF” value (“ability of the tag … of MITF” for short) in experiment [2] is “more effective than IKZF3 136-180”. The “ability of the tag … of NanoLuciferase” value in experiment [1] was “facilitated lenalidomide-dependent degradation of NanoLuciferase; also recorded: facilitated lenalidomide-induced degradation”.
As for “IKZF3 136-180: tag with amino acid residues 136-180 of IKZF3, SEQ ID NO: 5”, the “ability of the tag … of MITF” value in experiment [2] is “to a lesser degree than IKZF3 136-180 and 236-249”. Besides, the “ability of the tag … of NanoLuciferase” value in experiment [1] was “able to mediate lenalidomide-dependent degradation”.
For “IKZF3 145-155 MALEK: tag comprising the amino acid sequence of SEQ ID NO: 89 (PFQCNQCGASFMALEKMALEKMALE; source: /note="Description of Unknown: IKZF3 sequence")”, the “ability of the tag … of NanoLuciferase” value in experiment [1] is reported as “did not mediate lenalidomide-induced degradation; also recorded: did not mediate lenalidomide induced degradation”.
In the case of “lysine free IKZF3 136-180 and 236-249: variant in which every lysine residue in the tag was mutated to arginine, SEQ ID NO: 4”, the “ability of the tag … of MITF” value in experiment [2] was “did not significantly impact the ability of this tag to mediate lenalidomide-dependent degradation of MITF”.
On the same count and under the same terms, to “IKZF3 136-180 Q147H: variant of IKZF3 136-180 with glutamine at position 147 replaced with histidine, SEQ ID NO: 27” belongs “blocked the ability of IKZF3 136-180 to mediate the lenalidomide-dependent degradation of MITF; also recorded: did not show degradation”.
For “IKZF3 141-163 MALEK: tag comprising the amino acid sequence of SEQ ID NO: 88 (TGERPFQCNQCGASFTQKGNLLRMALEKMALEKMALE; source: /note="Description of Unknown: IKZF3 sequence")”, in experiment [1], the “ability of the tag … of NanoLuciferase” value was “did not mediate lenalidomide-induced degradation; also recorded: did not mediate lenalidomide induced degradation”.

B1: 767 (protein)
chain: MALPVTALLLPLALLLHAARPRSSLALSLTADQMVSALLDAEPPILYSEYDPTRPFSEASMMGLLTNLADRELVHMINWAKRVPGFVDLALHDQVHLLECAWMEILMIGLVWRSMEHPGKLLFAPNLLLDRNQGKCVEGGVEIFDMLLATSSRFRMMNLQGEEFVCLKSIILLNSGVYTFLSSTLKSLEEKDHIHRVLDKITDTLIHLMAKAGLTLQQQHQRLAQLLLILSHIRHMSSKRMEHLYSMKCKNVVPLSDLLLEMLDAHRLGTGAEDPRPSRKRRSLGDVGEIVMTQSPATLSLSPGERATLSCRASQDISKYLNWYQQKPGQAPRLLIYHTSRLHSGIPARFSGSGSGTDYTLTISSLQPEDFAVYFCQQGNTLPYTFGQGTKLEIKGGGGSGGGGSGGGGSQVQLQESGPGLVKPSETLSLTCTVSGVSLPDYGVSWIRQPPGKGLEWIGVIWGSETTYYQSSLKSRVTISKDNSKNQVSLKLSSVTAADTAVYYCAKHYYYGGSYAMDYWGQGTLVTVSSTTTPAPRPPTPAPTIASQPLSLRPEACRPAAGGAVHTRGLDFACDIYIWAPLAGTCGVLLLSLVITLYCKRGRKKLLYIFKQPFMRPVQTTQEEDGCSCRFPEEEEGGCELRVKFSRSADAPAYQQGQNQLYNELNLGRREEYDVLDKRRGRDPEMGGKPRRKNPQEGLYNELQKDKMAEAYSEIGMKGERRRGKGHDGLYQGLSTATKDTYDALHMQALPPRGGGGSGGGGTGGGGSGMHKRSHTGERPFQCNQCGASFTQKGNLLRHIKLHTGEKPFKCHLCNTASAEARHIKAEMG
With B1, in experiment [3], the “% reduction in CAR expression” value was found to be 95%, the Effect of lenalidomide entry is “Yes” and the “CAR Expression” value is recorded as “Yes”. In experiment [3] (with/without bazedoxifene), the Effect of bazedoxifene result is listed as “Yes”.

B2: 769 (protein)
chain: MALPVTALLLPLALLLHAARPEIVMTQSPATLSLSPGERATLSCRASQDISKYLNWYQQKPGQAPRLLIYHTSRLHSGIPARFSGSGSGTDYTLTISSLQPEDFAVYFCQQGNTLPYTFGQGTKLEIKGGGGSGGGGSGGGGSQVQLQESGPGLVKPSETLSLTCTVSGVSLPDYGVSWIRQPPGKGLEWIGVIWGSETTYYQSSLKSRVTISKDNSKNQVSLKLSSVTAADTAVYYCAKHYYYGGSYAMDYWGQGTLVTVSSTTTPAPRPPTPAPTIASQPLSLRPEACRPAAGGAVHTRGLDFACDIYIWAPLAGTCGVLLLSLVITLYCKRGRKKLLYIFKQPFMRPVQTTQEEDGCSCRFPEEEEGGCELRVKFSRSADAPAYQQGQNQLYNELNLGRREEYDVLDKRRGRDPEMGGKPRRKNPQEGLYNELQKDKMAEAYSEIGMKGERRRGKGHDGLYQGLSTATKDTYDALHMQALPPRGGGGSGGGGTGGGGSGMHKRSHTGERPFQCNQCGASFTQKGNLLRHIKLHTGEKPFKCHLCNTASAEARHIKAEMG
Regarding B2, in experiment [3], the “% reduction in CAR expression” value stood at 90%, the Effect of lenalidomide entry was “Yes” and the “CAR Expression” value is listed as “Yes”.

B3: 768 (protein)
chain: MALPVTALLLPLALLLHAARPEIVMTQSPATLSLSPGERATLSCRASQDISKYLNWYQQKPGQAPRLLIYHTSRLHSGIPARFSGSGSGTDYTLTISSLQPEDFAVYFCQQGNTLPYTFGQGTKLEIKGGGGSGGGGSGGGGSQVQLQESGPGLVKPSETLSLTCTVSGVSLPDYGVSWIRQPPGKGLEWIGVIWGSETTYYQSSLKSRVTISKDNSKNQVSLKLSSVTAADTAVYYCAKHYYYGGSYAMDYWGQGTLVTVSSTTTPAPRPPTPAPTIASQPLSLRPEACRPAAGGAVHTRGLDFACDIYIWAPLAGTCGVLLLSLVITLYCKRGRKKLLYIFKQPFMRPVQTTQEEDGCSCRFPEEEEGGCELRVKFSRSADAPAYQQGQNQLYNELNLGRREEYDVLDKRRGRDPEMGGKPRRKNPQEGLYNELQKDKMAEAYSEIGMKGERRRGKGHDGLYQGLSTATKDTYDALHMQALPPRGGGGSGGGGTGGGGSGMHKRSHTGERPFQCNQCGASFTQKGNLLRHIKLHTGEKPFKCHLCNTASAEARHIKAEMGGKPIPNPLLGLDST
On to B3, for which, in experiment [3], the “% reduction in CAR expression” value is recorded as 88%, the Effect of lenalidomide entry is reported as “Yes” and the “CAR Expression” value is “Yes”.
